Conditions in all cases: read-out: Binding Constants KA (1 × 10^5) L.mol^-1 (converted)
Test [1] addresses T1, Sortase A (SrtA) (Staphylococcus aureus, UniProt Q2FV99).
T1 construct: SrtAΔN59 (residues 60-206)
The test can be described thus: fluorescence-quenching binding constant KA; also FRET inhibition of purified SrtAΔN59 (IC50 […]).

For test [2], the target named is T2, Sortase A (SrtA) (Staphylococcus aureus, UniProt Q2FV99, G167A).
T2 construct: SrtAΔN59 (residues 60-206)
Nature of the test: fluorescence-quenching binding constant KA.

Test [3] has as its target T3, Sortase A (SrtA) (Staphylococcus aureus, UniProt Q2FV99, V193A).
T3 construct: SrtAΔN59 (residues 60-206)
The test can be described thus: fluorescence-quenching binding constant KA.

In the case of `C[C@@H]1O[C@@H](Oc2c(-c3ccc(O)c(O)c3)oc3cc(O)cc(O)c3c2=O)[C@H](O)[C@H](O)[C@H]1O` [QEN, Quercitrin], the Kd in test [1] is 1.45 µM; in test [2], 2.7 µM; in test [3], 2.38 µM.

The values are drawn from publication PMC6272417, “Quercitrin, an Inhibitor of Sortase A, Interferes with the Adhesion of Staphylococcal aureus” (Molecules, 2015).
